Test results from US8895571B2, “Isoindolinone and pyrrolopyridinone derivatives as Akt inhibitors” (Incyte Corporation, priority 2011, dated 2014).

Key:
Full length Akt1 = molecular target: T1, Full length Akt1 (Homo sapiens, UniProt P31749); assay: In vitro Akt kinase enzymatic assay (HTRF), Akt1; format: biochemical; conditions: 0.4 nM Akt1, substrate solution with 5 mM ATP, 25° C. 1 hr
T1 construct: Full length Akt1 (cat #P2999); purchased PerkinElmer P2999
Method in brief: (§1)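 Full-length enzyme (0.4 nM Akt1 or 0.6 nM Akt2/Akt3 in the enzyme solution) was combined with a substrate solution of 0.1 μM ULight-Crosstide plus 5 mM ATP in pH 7.8 HEPES/MgCl2/DTT/Tween20 buffer and reacted 1 hr at 25° C. The EDTA stop contained Eu anti-phospho-Crosstide; IC50 was fitted from 11-point HTRF inhibition curves.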

Full length Akt2 = molecular target: T2, Full length Akt2 (Homo sapiens, UniProt P31751); assay: In vitro Akt kinase enzymatic assay (HTRF), Akt2; format: biochemical; conditions: 0.6 nM Akt2, substrate solution with 5 mM ATP, 25° C. 1 hr
T2 construct: Full length Akt1 (cat #P2999), Akt2 (cat #PV3184); purchased PerkinElmer PV3184
Method in brief: as §1

Full length Akt3 = molecular target: T3, Full length Akt3 (Homo sapiens, UniProt Q9Y243); assay: In vitro Akt kinase enzymatic assay (HTRF), Akt3; format: biochemical; conditions: 0.6 nM Akt3, substrate solution with 5 mM ATP, 25° C. 1 hr
T3 construct: Full length Akt1 (cat #P2999), Akt2 (cat #PV3184), Akt3 (cat #PV3185); purchased PerkinElmer PV3185
Method in brief: as §1

Full length PKA = molecular target: T4, Full length PKA (Homo sapiens, UniProt P17612); assay: PKA in vitro enzymatic assay (HTRF); format: biochemical; conditions: 0.035 nM enzyme solution, substrate solution with 5 mM ATP, 25° C. 1 hr
T4 construct: Full length PKA (cat #P2912); purchased Invitrogen P2912
Method in brief: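 IC50 came from curve fitting of percent inhibition across an 11-point, 3-fold compound series, with HTRF read after EDTA quench and Tb-labelled p-S133 antibody detection. Enzyme (0.035 nM solution) and substrate (0.1 μM fluorescein-CREBtide solution containing 5 mM ATP) reacted for 1 h at 25°C. The buffer was HEPES 50 mM pH 7.8 with 10 mM MgCl2, 5 mM DTT and 0.005% Tween20.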

[1] = system: LNCaP cells (human prostate tumor cell line); assay: Akt LNCaP proliferation assay (MTS); format: cell-based; conditions: 2% fetal bovine serum, 48 hours, class symbols
Protocol: LNCaP cells (human prostate tumor cell line) were plated in 96 well plates (COSTAR, Corning, N.Y.) in 50 μL at 10,000 cells/well in RPMI (Media Tech, Manassas, Va.), 2% fetal bovine serum (Hyclone/Thermo, Logan, Utah) and incubated overnight at 37° C., 5% CO2. […] of compound solution were added at final concentrations of 1000 nM to 0.5 nM in 3 fold dilutions for IC50 determination and plates further incubated for 48 hours. 100 μL of Cell Titer 96® Aqueous reagent, from an MTS colorimetric method for determining the number of viable cells in proliferation (Cell titer 96, Promega, Madison, Wis.) was added for 2 hours at 37° C., 5% CO2. Each plate was mixed well and read on a SpectroMax M5 automated plate reader (Molecular Devices, Sunnyvale Calif.). The ability of the compound to inhibit proliferation was reported as the inhibitor concentration required for 50% inhibition (IC50 values) of total cell proliferation. See Table 8 for data related to compounds of the examples.

T3 sequence (Q9Y243 whole entry): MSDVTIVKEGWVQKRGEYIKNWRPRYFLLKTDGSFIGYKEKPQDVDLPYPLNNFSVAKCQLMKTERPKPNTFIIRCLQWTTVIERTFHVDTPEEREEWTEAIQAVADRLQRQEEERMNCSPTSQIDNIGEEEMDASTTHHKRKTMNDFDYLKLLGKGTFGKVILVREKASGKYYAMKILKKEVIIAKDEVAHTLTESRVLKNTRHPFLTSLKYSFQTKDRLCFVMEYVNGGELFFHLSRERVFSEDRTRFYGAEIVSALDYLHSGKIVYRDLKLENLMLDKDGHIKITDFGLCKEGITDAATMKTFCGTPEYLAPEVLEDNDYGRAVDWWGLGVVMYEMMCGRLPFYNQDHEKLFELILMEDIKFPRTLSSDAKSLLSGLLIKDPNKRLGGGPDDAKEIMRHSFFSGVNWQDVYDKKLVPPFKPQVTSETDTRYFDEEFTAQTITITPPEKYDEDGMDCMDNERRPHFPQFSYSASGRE
T1 sequence (P31749 whole entry): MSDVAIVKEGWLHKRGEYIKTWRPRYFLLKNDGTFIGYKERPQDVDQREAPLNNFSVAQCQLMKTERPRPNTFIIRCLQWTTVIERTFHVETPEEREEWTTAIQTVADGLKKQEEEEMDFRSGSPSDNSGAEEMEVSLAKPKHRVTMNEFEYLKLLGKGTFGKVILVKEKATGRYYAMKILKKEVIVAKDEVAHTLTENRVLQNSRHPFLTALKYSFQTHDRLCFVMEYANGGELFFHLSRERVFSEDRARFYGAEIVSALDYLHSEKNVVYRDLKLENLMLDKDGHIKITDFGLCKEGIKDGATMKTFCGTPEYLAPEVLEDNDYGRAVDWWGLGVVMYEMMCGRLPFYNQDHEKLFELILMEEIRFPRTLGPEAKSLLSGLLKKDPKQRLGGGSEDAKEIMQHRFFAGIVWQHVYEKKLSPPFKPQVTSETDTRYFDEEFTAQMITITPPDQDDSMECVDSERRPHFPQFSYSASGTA
T2 sequence (P31751 whole entry): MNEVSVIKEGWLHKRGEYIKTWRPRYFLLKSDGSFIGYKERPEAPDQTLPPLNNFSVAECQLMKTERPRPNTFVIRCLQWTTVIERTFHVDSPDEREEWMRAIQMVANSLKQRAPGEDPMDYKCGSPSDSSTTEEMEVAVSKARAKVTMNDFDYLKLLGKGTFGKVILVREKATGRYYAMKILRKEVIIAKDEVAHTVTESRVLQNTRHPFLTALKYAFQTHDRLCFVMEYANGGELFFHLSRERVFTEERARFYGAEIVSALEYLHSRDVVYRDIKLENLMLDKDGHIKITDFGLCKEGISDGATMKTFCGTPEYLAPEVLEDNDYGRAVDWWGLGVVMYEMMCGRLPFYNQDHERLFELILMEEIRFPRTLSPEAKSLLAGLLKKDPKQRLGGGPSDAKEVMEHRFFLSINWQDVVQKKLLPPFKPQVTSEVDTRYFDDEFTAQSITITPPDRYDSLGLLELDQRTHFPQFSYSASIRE

| Structure (SMILES) | IC50 (Full length Akt1) [nM] | IC50 (Full length Akt2) [nM] | IC50 (Full length Akt3) [nM] | IC50 (Full length PKA) [nM] | IC50 [1] [nM] |
| --- | --- | --- | --- | --- | --- |
| Cn1ncc(Cl)c1-c1ccc2c(c1)CN([C@H](CN)Cc1ccccc1F)C2=O (stereo in doubt) [Example 60, 2-[2-amino-1-(2-fluorobenzyl)ethyl]-5-(4-chloro-1-methyl-1H-pyrazol-5-yl)isoindolin-1-one] | < 500 | < 500 | < 500 | > 5000 | < 500 |
| Cn1ncc(Cl)c1-c1ccc2c(c1)CN([C@H](CN)Cc1cccc(C(F)(F)F)c1)C2=O (stereo in doubt) [Example 61, 2-{2-amino-1-[3-(trifluoromethyl)benzyl]ethyl}-5-(4-chloro-1-methyl-1H-pyrazol-5-yl)isoindolin-1-one] | < 500 | < 500 | < 500 | 500 to 5000 | 500 to 5000 |
| Cn1nccc1-c1ccc2c(c1)CN([C@H](CN)Cc1cccc(F)c1)C2=O [Example 1, 2-[(1S)-2-Amino-1-(3-fluorobenzyl)ethyl]-5-(1-methyl-1H-pyrazol-5-yl)isoindolin-1-one] | < 500 | < 500 | < 500 | 500 to 5000 | < 500 |
| Cn1ncc(Cl)c1-c1ccc2c(c1)CN([C@H](CN)Cc1cccc(F)c1)C2=O [Example 2, 2-[(1S)-2-amino-1-(3-fluorobenzyl)ethyl]-5-(4-chloro-1-methyl-1H-pyrazol-5-yl)isoindolin-1-one] | < 500 | < 500 | < 500 | 500 to 5000 | < 500 |
| Cc1cnn(C)c1-c1ccc2c(c1)CN([C@H](CN)Cc1cccc(F)c1)C2=O [Example 3, 2-[(1S)-2-amino-1-(3-fluorobenzyl)ethyl]-5-(4-methyl-1-methyl-1H-pyrazol-5-yl)isoindolin-1-one] | < 500 | < 500 | < 500 | 500 to 5000 | < 500 |
| COCc1cnn(C)c1-c1ccc2c(c1)CN([C@H](CN)Cc1cccc(F)c1)C2=O [Example 4, 2-[(1S)-2-amino-1-(3-fluorobenzyl)ethyl]-5-(4-methoxymethyl-1-methyl-1H-pyrazol-5-yl)isoindolin-1-one] | < 500 | < 500 | < 500 | > 5000 | < 500 |
| CCOCc1cnn(C)c1-c1ccc2c(c1)CN([C@H](CN)Cc1cccc(F)c1)C2=O [Example 5, 2-[(1S)-2-amino-1-(3-fluorobenzyl)ethyl]-5-(4-ethoxymethyl-1-methyl-1H-pyrazol-5-yl)isoindolin-1-one] | < 500 | < 500 | < 500 | > 5000 | < 500 |
| CC(C)OCc1cnn(C)c1-c1ccc2c(c1)CN([C@H](CN)Cc1cccc(F)c1)C2=O [Example 6, 2-[(1S)-2-amino-1-(3-fluorobenzyl)ethyl]-5-[4-(2-propoxymethyl)-1-methyl-1H-pyrazol-5-yl]isoindolin-1-one] | < 500 | < 500 | < 500 | > 5000 | < 500 |
| CCCOCc1cnn(C)c1-c1ccc2c(c1)CN([C@H](CN)Cc1cccc(F)c1)C2=O [Example 7, 2-[(1S)-2-amino-1-(3-fluorobenzyl)ethyl]-5-[4-(1-propoxymethyl)-1-methyl-1H-pyrazol-5-yl]isoindolin-1-one] | < 500 | < 500 | < 500 | > 5000 | < 500 |
| Cn1ncc(Cl)c1-c1ccc2c(n1)CN([C@H](CN)Cc1ccccc1)C2=O [Example 112, 6-[(1S)-2-amino-1-benzylethyl]-2-(4-chloro-1-methyl-1H-pyrazol-5-yl)-6,7-dihydro-5H-pyrrolo[3,4-b]pyridin-5-one] | 500 to 5000 | 500 to 5000 | 500 to 5000 | > 5000 | – |
| Cn1ncc(Cl)c1-c1ncc2c(n1)CN([C@H](CN)Cc1ccccc1)C2=O [Example 113, 6-[(1S)-2-amino-1-benzyl-ethyl]-2-(4-chloro-1-methyl-1H-pyrazol-5-yl)-6,7-dihydro-5H-pyrrolo[3,4-d]pyrimidin-5-one] | < 500 | 500 to 5000 | 500 to 5000 | > 5000 | – |
| CN(C)CC(c1ccccc1)N1Cc2cc(-c3ccnn3C)ccc2C1=O (centres unmarked) [Example 115] | 500 to 5000 | > 5000 | > 5000 | > 5000 | – |
| Cn1nccc1-c1ccc2c(c1)CN(C(CN)c1ccc(F)cc1)C2=O (centres unmarked) [Example 118, 2-[2-amino-1-(4-fluorophenyl)ethyl]-5-(1-methyl-1H-pyrazol-5-yl)isoindolin-1-one] | < 500 | 500 to 5000 | > 5000 | > 5000 | – |
| COc1cccc(C(CN)N2Cc3cc(-c4ccnn4C)ccc3C2=O)c1 (centres unmarked) [Example 119, 2-[2-amino-1-(3-methoxyphenyl)ethyl]-5-(1-methyl-1H-pyrazol-5-yl)isoindolin-1-one] | < 500 | < 500 | 500 to 5000 | 500 to 5000 | – |
| COc1ccc(C(CN)N2Cc3cc(-c4ccnn4C)ccc3C2=O)cc1 (centres unmarked) [Example 120, 2-[2-amino-1-(4-methoxyphenyl)ethyl]-5-(1-methyl-1H-pyrazol-5-yl)isoindolin-1-one] | > 5000 | > 5000 | > 5000 | > 5000 | – |
| CN(C)CC(c1ccccc1)N1Cc2cc(-c3c(Cl)cnn3C)ccc2C1=O (centres unmarked) [Example 121, 5-(4-chloro-1-methyl-1H-pyrazol-5-yl)-2-[2-(dimethyl-amino)-1-phenylethyl]iso-indolin-1-one] | > 5000 | > 5000 | > 5000 | > 5000 | – |
| CC(C)OCc1cnn(C)c1-c1ccc2c(c1)CN([C@@H](CN)c1ccccc1)C2=O [Example 122, 2-[(1R)-2-amino-1-phenylethyl]-5-[4-(2-propoxymethyl)-1-methyl-1H-pyrazol-5-yl]iso-indolin-1-one] | < 500 | 500 to 5000 | 500 to 5000 | > 5000 | – |
| Cn1ncc(Cl)c1-c1ccc2c(c1)CN(C(CN)c1cccc(F)c1)C2=O (centres unmarked) [Example 123, 2-[2-amino-1-(3-fluorophenyl)ethyl]-5-(4-chloro-1-methyl-1H-pyrazol-5-yl)isoindolin-1-one] | < 500 | 500 to 5000 | 500 to 5000 | 500 to 5000 | – |
| Cn1ncc(Cl)c1-c1ccc2c(c1)CN(C(CN)c1ccc(F)cc1)C2=O (centres unmarked) [Example 124, 2-[2-amino-1-(4-fluorophenyl)ethyl]-5-(4-chloro-1-methyl-1H-pyrazol-5-yl)isoindolin-1-one] | 500 to 5000 | 500 to 5000 | 500 to 5000 | > 5000 | – |
| COc1cccc(C(CN)N2Cc3cc(-c4c(Cl)cnn4C)ccc3C2=O)c1 (centres unmarked) [Example 125, 2-[2-amino-1-(3-methoxyphenyl)ethyl]-5-(4-chloro-1-methyl-1H-pyrazol-5-yl)isoindolin-1-one] | < 500 | 500 to 5000 | 500 to 5000 | > 5000 | – |
| COc1ccc(C(CN)N2Cc3cc(-c4c(Cl)cnn4C)ccc3C2=O)cc1 (centres unmarked) [Example 126, 2-[2-amino-1-(4-methoxyphenyl)ethyl]-5-(4-chloro-1-methyl-1H-pyrazol-5-yl)isoindolin-1-one] | > 5000 | > 5000 | > 5000 | > 5000 | – |
| Cn1nccc1-c1ccc2c(c1)CN([C@H](CN)CC1CC1)C2=O [Example 136, 2-[(1S)-2-amino-1-(cyclopropylmethyl)ethyl]-5-(1-methyl-1H-pyrazol-5-yl)isoindolin-1-one] | < 500 | 500 to 5000 | > 5000 | > 5000 | – |
| Cn1ncc(Cl)c1-c1ccc2c(c1)CN([C@H](CN)CC1CC1)C2=O [Example 137, 2-[(1S)-2-amino-1-(cyclopropylmethyl)ethyl]-5-(4-chloro-1-methyl-1H-pyrazol-5-yl)isoindolin-1-one] | 500 to 5000 | 500 to 5000 | 500 to 5000 | > 5000 | – |
